Reference: patent publication US5030647A, “Anti-inflammatory thienylbenzylamine compounds” (Boehringer Ingelheim Pharmaceuticals, Inc., priority 1990, dated 1991)
Structures can show the parent of a compound that is named as a salt. Where two headings read alike, the source gives them in different places.

Test system: paw swelling
Test: Reverse passive Arthus reaction, inhibition of paw swelling after oral dosing
Format: in vivo
Settings: Rattus norvegicus, po, 30 mg/kg oral, rats
Protocol: The reverse passive Arthus reaction is initiated by the interaction of antigen and antibody resulting in the formation of a precipitating immune complex, followed by fixation of complement, accumulation of leukocytes, edema and hemorrhage. The immunopathology of rheumatoid arthritis involves many of the parameters found in this reaction. Test groups (5 rats per group) are dosed orally with compounds one hour prior to the sub-plantar injection into the right hind paw of rabbit anti-ovalbumin antibody (50 μg/0.1 ml). Immediately afterwards, ovalbumin (Sigma, #5503) (5 mg/0.2 ml) is injected i.v. via the tail vein. The right hind paw volume is measured at hourly intervals, from one to four hours after the injection of the immune reactants. The change in paw volume for each animal is calculated by subtracting zero hour paw volume (before injection) from the paw volume at the time of measurement. The mean of these values is calculated for each group. Results are expressed in Table I below as percent inhibition of paw swelling compared to untreated controls.

[1] = 2 h, 2 hours, read-out: % INHIBITION (of paw swelling) HOUR 2
[2] = 3 h, 3 hours, read-out: % INHIBITION (of paw swelling) HOUR 3
[3] = 4 h, 4 hours, read-out: % INHIBITION (of paw swelling) HOUR 4

| Structure (SMILES) | inhibition in vivo at 30 mg/kg [1] [%] | inhibition in vivo at 30 mg/kg [2] [%] | inhibition in vivo at 30 mg/kg [3] [%] |
| --- | --- | --- | --- |
| CN(C)Cc1ccccc1C(O)c1cc(Cl)sc1Cl (centres unmarked) [Compound 25, 2,5-dichloro-3[(2-N,N-dimethylaminomethylphenyl)hydroxymethyl]thiophene hydrochloride] | 68 | 64 | 38 |
| CN(C)Cc1ccccc1C(O)c1cscc1Br (centres unmarked) [Compound 26, 4-bromo-3-[(2-N,N-dimethylaminomethylphenyl)hydroxymethyl]thiophene hydrochloride] | 42 | 25 | 6 |
| CN(C)Cc1ccccc1C(O)c1scc(Br)c1Br (centres unmarked) [Compound 27, 3,4-dibromo-2-[(2-N,N-dimethylaminomethylphenyl)hydroxymethyl]thiophene hydrochloride] | 39 | 25 | 10 |
| CN(C)Cc1ccccc1C(O)c1csc(I)c1 (centres unmarked) [Compound 28, 5-iodo-3-[(2-N,N-dimethylaminomethylphenyl)hydroxymethyl]thiophene hydrochloride] | 21 | 0 | 13 |
| CN(C)Cc1ccccc1C(O)c1cc(I)sc1I (centres unmarked) [Compound 29, 2,5-diiodo-3-[(2-N,N-dimethylaminomethylphenyl)hydroxymethyl]thiophene hydrochloride] | 50 | 29 | 0 |
| CN(C)Cc1ccccc1C(O)c1csc(Cl)c1Cl (centres unmarked) [Compound 30, 4,5-dichloro-3-[(2-N,N-dimethylaminomethylphenyl)hydroxymethyl]thiophene hydrochloride] | 47 | 36 |  |
| CN(C)Cc1ccccc1C(O)c1c(Cl)sc(Cl)c1Cl (centres unmarked) [Compound 31, 2,4,5-Trichloro-3-[(2-N,N-dimethylaminomethylphenyl)hydroxymethyl]thiophene hydrochloride] | 44 | 32 | 0 |
| CN(C)Cc1ccccc1C(O)c1sc(Cl)cc1Cl (centres unmarked) [Compound 32, 3,5-dichloro-2-[(N,N-dimethylaminomethylphenyl)hydroxymethyl]thiophene hydrochloride] | 62 | 47 | 12 |
| CN(C)Cc1ccccc1C(C)(O)c1ccc(Br)s1 (centres unmarked) [Compound 34, N,N-dimethyl-2-[1-(5-bromothien-2-yl)-1-hydroxyethyl]benzylamine] | 66 | 49 | 14 |
| CC(c1ccccc1C(O)c1csc(Br)c1)N(C)C (centres unmarked) [Compound 35, 5-bromo-3-[2-(1-N,N-dimethylaminoethylphenyl)hydroxymethyl]thiophene] | 58 | 48 | 9 |
| CC(c1ccccc1C(O)c1ccc(Cl)s1)N(C)C (centres unmarked) [Compound 36, 5-chloro-2-[2-(1-N,N-dimethylaminoethylphenyl)hydroxymethyl]thiophene hydrochloride] | 52 | 15 | 3 |
| CN(C)Cc1ccccc1C(=O)c1ccsc1 [Compound 37, 3-[2-(2-N,N-dimethylaminomethylphenyl)carbonyl]thiophene] | 0 | 0 | 0 |
